Assay results taken from US10881642B2, “Autophagy enhancer and use thereof” (Industry-Academic Cooperation Foundation, Yonsei University, priority 2016, dated 2021).

System: primary peritoneal macrophages
Experiment: IL-1β ELISA / inflammasome activation in macrophages
Format: cell-based, C57BL/6 mice
Experimental: FIG. 5 is the results indicating the present compound MSL reduces the activation of inflammasome and enhances the function of mitochondria. FIG. 5A is the results of the experiment in which primary peritoneal macrophages were isolated and treated with palmitic acid, LPS and MSL and then the concentration of IL-beta was measured from the supernatant using ELISA. Error bars, S.D. **, P<0.01; ***, P<0.001, two-way ANOVA. […]
Screening of autophagy enhancer. […] Firefly luciferase was determined after mixing 5 μl of lysate with 25 μl of Luciferase Assay Reagent II. Renilla luciferase was then determined after further addition of 20 ul of Stop&Glo Reagent. […] Cytotoxicity was determined by the measurement of LDH release in cell culture media using the LDH kit (Roche), according to the protocol from the manufacturer. […] Imaging and image quantification. […] Formation of acidic vesicular organelles was quantitated by staining the cells with acridine orange (Invitrogen, 5 ug/ml, 10 min). […] Cells or tissues were solubilized in lysis buffer supplemented with protease and phosphatase inhibitors and protein concentration was measured by the Bradford method. Ten to 30 micrograms were loaded on 4-12% Bis-Tris gel (NUPAGE, Invitrogen) or 8-15% SDS-PAGE, transferred to PVDF membranes and analyzed by western blot using the ECL method (Pierce). […]

In the case of `CSc1oc(-c2ccccc2)nc1S(=O)(=O)c1ccc(F)cc1` [MSL], the “release of IL-1β measured by ELISA” value (PA in combination with LPS) is reported as “significantly decreased” and the “caspase-1 cleavage and IL-1 β maturation (Western blot)” value (data not shown) is reported as “decreased”.
